Earlier results in US4127538A, “Novel pentacosapeptides, intermediates therefor and pharmaceutical compositions and methods employing said pentacosapeptides” (priority 1977, dated 1978).

Assays:
[1] = injected directly into the brain of the rat
[2] = test system: partially purified brain opiate receptor sites

H-Tyr-Gly-Gly-Phe-Met-OH [methionine enkephalin]
analgesic effect [1]: weak analgesic agent of short duration | binding to partially purified brain opiate receptor sites [2]: binds stereo-specifically
